Data from patent US20130017174A1, “COMPOSITIONS AND METHODS FOR INCREASING HEALTH AND REDUCING PATHOGENIC BACTERIA IN ANIMALS” (The Board of Trustees of the University of Arkansas, priority 2011, published 2013).

Tested on: Salmonella enteritidis
Assay: In vitro testing: SE recovery from inoculated chick starter feed
Format: cell-based
Conditions: feed with increasing amounts of sodium nitrate (1-1000 ppm), 42° C. for 24 hours, vs control (FIG. 1)
Protocol: Briefly, 1.25 grams of chick starter feed was measured into 13×100 mm borosilicate tubes and autoclaved. Nitrate was mixed into the feed before autoclaving at concentrations of 1000 ppm, 100 ppm, 10 ppm, or 1 ppm (Sodium Nitrate, Sigma Chemical Co., St. Louis, Mo.).
The feed also contained 0.1% lactose as a prebiotic. The feed was suspended in 4.5 mL sterile saline and inoculated with 0.5 mL of Salmonella enteriditis (SE) culture containing approximately 10^4 cfu/ml. The tubes were treated with either 0.6 ml of 10^6 cfu/ml of FloraMax-B11® probiotic or saline as a negative control. After administering the treatment, the tubes were agitated and incubated at 42° C. for 24 hours. The tubes then were agitated and the content was serially diluted and plated on Brilliant Green Agar (BGA) containing novobiocin (250 ml) and nalidixic acid (20 μl/ml) to select for SE. Typical SE colonies were counted after 24 hours of incubation.

Compound: O=[N+]([O-])[O-].[Na+] [sodium nitrate, Sodium Nitrate]
- recovery of SE: decreased recovery of SE as compared to the control
